# Data as given in patent publication US12358932B2, “Chemical compounds” (BORAH, INC., priority 2019, dated 2025).
# System: JAK
# Assay: Biochemical Kinase Assay Protocol (JAK)
# Conditions: compound list; + = noted target activity, number of * = preference
# Protocol: Biochemical Kinase Assay Protocol (JAK, TrkA, Syk, Tyk2)
# Reagent: Base Reaction buffer; 20 mM Hepes (pH 7.5), 10 mM MgCl2, 1 mM EGTA, 0.02% Brij™ 35, 0.02 mg/ml BSA, 0.1 mM Na3VO4, 2 mM DTT, 1% DMSO, where required cofactors are added individually to each kinase reaction.
# • 1. Prepare indicated substrate in freshly prepared Base Reaction Buffer • 2. Deliver any required cofactors to the substrate solution above • 3. Deliver indicated kinase (JAK or TrkA) into the substrate solution and gently mix • 4. Deliver compounds in DMSO into the kinase reaction mixture by Acoustic technology (Echo550; nanoliter range), incubate for 20 minutes at room temperature • 5. Deliver 33P-ATP into the reaction mixture to initiate the reaction. • 6. Incubate kinase reaction for 2 hours at room temperature • 7. Reactions are spotted onto P81 ion exchange paper • 8. Detect kinase activity by filter-binding method. PDE4B Phosphodiesterase Assay
row,Structure (SMILES),Activity Note: JAK
1,"CCc1cc(Nc2nccc(NC3CCCC3)n2)cc2c1B(O)OC2 [5-((4-(cyclopentylamino)pyrimidin-2-yl)amino)-7-ethylbenzo[c][1,2]oxaborol-1(3H)-ol]",JAK+**
2,"OB1OCc2cc(Nc3ncc(Cl)c(NC4CCCC4)n3)cc(C(F)(F)F)c21 [5-((5-chloro-4-(cyclopentylamino)pyrimidin-2-yl)amino)-7-(trifluoromethyl)benzo[c][1,2]oxaborol-1(3H)-ol]",JAK+***
3,"CCC(CC)Nc1nc(Nc2cc(C)c3c(c2)C(C)(C)OB3O)ncc1C [3,3,7-trimethyl-5-((5-methyl-4-(pentan-3-ylamino)pyrimidin-2-yl)amino)benzo[c][1,2]oxaborol-1(3H)-ol]",JAK+***
4,"Cc1cnc(Nc2ccc3c(c2)B(O)OC3)nc1NC1CCCCC1 [6-((4-(cyclohexylamino)-5-methylpyrimidin-2-yl)amino)benzo[c][1,2]oxaborol-1(3H)-ol]",JAK+*
5,"Cc1cnc(Nc2ccc3c(c2)CCOB3O)nc1NC1CCCC1 [6-((4-(cyclopentylamino)-5-methylpyrimidin-2-yl)amino)-3,4-dihydro-1H-benzo[c][1,2]oxaborinin-1-ol]",JAK+***
6,"Cc1cnc(Nc2cc(C)c3c(c2)COB3O)nc1NC1CCCC1 [5-((4-(cyclopentylamino)-5-methylpyrimidin-2-yl)amino)-7-methylbenzo[c][1,2]oxaborol-1(3H)-ol]",JAK+***
7,"CC1(C)OB(O)c2ccc(Nc3ncc(Cl)c(NC4CCCC4)n3)cc21 [5-((5-chloro-4-(cyclopentylamino)pyrimidin-2-yl)amino)-3,3-dimethylbenzo[c][1,2]oxaborol-1(3H)-ol]",JAK+***
8,"Cc1cc(Nc2ncc(Cl)c(NC3CCCC3)n2)cc2c1B(O)OC2 [5-((5-chloro-4-(cyclopentylamino)pyrimidin-2-yl)amino)-7-methylbenzo[c][1,2]oxaborol-1(3H)-ol]",JAK+***
9,"Cc1cnc(Nc2cc3c(c(C(F)(F)F)c2)B(O)OC3)nc1Nc1ccccc1 [5-((5-methyl-4-(phenylamino)pyrimidin-2-yl)amino)-7-(trifluoromethyl)benzo[c][1,2]oxaborol-1(3H)-ol]",JAK+***
10,"Cc1cnc(Nc2ccc3c(c2)C(C)(C)OB3O)nc1NC1CCCC1 [5-((4-(cyclopentylamino)-5-methylpyrimidin-2-yl)amino)-3,3-dimethylbenzo[c][1,2]oxaborol-1(3H)-ol]",JAK+***
11,"CCC(CC)Nc1nc(Nc2cc(C)c3c(c2)C(C)OB3O)ncc1C (stereo not drawn) [3,7-dimethyl-5-((5-methyl-4-(pentan-3-ylamino)pyrimidin-2-yl)amino)benzo[c][1,2]oxaborol-1(3H)-ol]",JAK+***
12,"Cc1cnc(Nc2cc(C)c3c(c2)COB3O)nc1Nc1ccccc1 [7-methyl-5-((5-methyl-4-(phenylamino)pyrimidin-2-yl)amino)benzo[c][1,2]oxaborol-1(3H)-ol]",JAK+***
13,"Cc1cnc(Nc2ccc3c(c2)B(O)OC3)nc1Nc1cccc(S(C)(=O)=O)c1 [6-((5-methyl-4-((3-(methylsulfonyl)phenyl)amino)pyrimidin-2-yl)amino)benzo[c][1,2]oxaborol-1(3H)-ol]",JAK+*
14,"CCC(CC)Nc1nc(Nc2cc(C)c3c(c2)COB3O)ncc1C [7-methyl-5-((5-methyl-4-(pentan-3-ylamino)pyrimidin-2-yl)amino)benzo[c][1,2]oxaborol-1(3H)-ol]",JAK+***
15,"Cc1cnc(Nc2cc(C)c3c(c2)C(C)(C)OB3O)nc1Nc1ccccc1 [3,3,7-trimethyl-5-((5-methyl-4-(phenylamino)pyrimidin-2-yl)amino)benzo[c][1,2]oxaborol-1(3H)-ol]",JAK+***
16,"CCc1cc(Nc2ncc(C)c(NC(CC)CC)n2)cc2c1B(O)OC2 [7-ethyl-5-((5-methyl-4-(pentan-3-ylamino)pyrimidin-2-yl)amino)benzo[c][1,2]oxaborol-1(3H)-ol]",JAK+***
17,"Cc1cnc(Nc2ccc3c(c2)C(C)(C)OB3O)nc1Nc1ccccc1 [3,3-dimethyl-5-((5-methyl-4-(phenylamino)pyrimidin-2-yl)amino)benzo[c][1,2]oxaborol-1(3H)-ol]",JAK+***
18,"CCC(CC)Nc1nc(Nc2ccc3c(c2)B(O)OC3)ncc1C [6-((5-methyl-4-(pentan-3-ylamino)pyrimidin-2-yl)amino)benzo[c][1,2]oxaborol-1(3H)-ol]",JAK+*
19,"OB1OCc2cc(Nc3ncc(Cl)c(NC4CCCC4)n3)cc(Cl)c21 [7-chloro-5-((5-chloro-4-(cyclopentylamino)pyrimidin-2-yl)amino)benzo[c][1,2]oxaborol-1(3H)-ol]",JAK+***
20,"CCC(CC)Nc1nc(Nc2ccc3c(c2)C(C)(C)OB3O)ncc1C [3,3-dimethyl-5-((5-methyl-4-(pentan-3-ylamino)pyrimidin-2-yl)amino)benzo[c][1,2]oxaborol-1(3H)-ol]",JAK+***
21,"CCC(CC)Nc1nc(Nc2cc3c(c(C(F)(F)F)c2)B(O)OC3)ncc1C [5-((5-methyl-4-(pentan-3-ylamino)pyrimidin-2-yl)amino)-7-(trifluoromethyl)benzo[c][1,2]oxaborol-1(3H)-ol]",JAK+***
22,"Cc1cc(Nc2ncc(Cl)c(NC3CCCC3)n2)cc2c1B(O)OC2(C)C [5-((5-chloro-4-(cyclopentylamino)pyrimidin-2-yl)amino)-3,3,7-trimethylbenzo[c][1,2]oxaborol-1(3H)-ol]",JAK+***
23,"CCC(CC)Nc1nc(Nc2ccc3c(c2)C(C)OB3O)ncc1C (stereo not drawn) [3-methyl-5-((5-methyl-4-(pentan-3-ylamino)pyrimidin-2-yl)amino)benzo[c][1,2]oxaborol-1(3H)-ol]",JAK+***
24,"Cc1cnc(Nc2cc(Cl)c3c(c2)COB3O)nc1Nc1ccccc1 [7-chloro-5-((5-methyl-4-(phenylamino)pyrimidin-2-yl)amino)benzo[c][1,2]oxaborol-1(3H)-ol]",JAK+***
25,"Cc1cnc(Nc2ccc3c(c2F)B(O)OC3)nc1Nc1cccc(S(C)(=O)=O)c1 [7-fluoro-6-((5-methyl-4-((3-(methylsulfonyl)phenyl)amino)pyrimidin-2-yl)amino)benzo[c][1,2]oxaborol-1(3H)-ol]",JAK+*
26,"Cc1cnc(Nc2ccc3c(c2)B(O)OC3)nc1N[C@H]1CC[C@H](CO)CC1 [6-((4-(((1r,4r)-4-(hydroxymethyl)cyclohexyl)amino)-5-methylpyrimidin-2-yl)amino)benzo[c][1,2]oxaborol-1(3H)-ol]",JAK+*
27,"CCCNc1nc(Nc2ccc3c(c2)B(O)OC3)ncc1I [6-((5-iodo-4-(propylamino)pyrimidin-2-yl)amino)benzo[c][1,2]oxaborol-1(3H)-ol]",JAK+*
28,"CCc1cc(N(c2ncc(C)c(NC(CC)CC)n2)S(=O)(=O)C(F)(F)F)cc2c1B(O)OC2 [N-(7-ethyl-1-hydroxy-1,3-dihydrobenzo[c][1,2]oxaborol-5-yl)-1,1,1-trifluoro-N-(5-methyl-4-(pentan-3-ylamino)pyrimidin-2-yl)methanesulfonamide]",JAK+*

# Biological target: T1, Recombinant human PDE4B (Homo sapiens, UniProt Q07343)
# T1 construct: aa 305-end; GST (N); made in house; host or cells: Sf9 insect cells (baculovirus)
# Assay: PDE4B Phosphodiesterase Assay
# Type: biochemical
# Parameters: key to Activity Note: PDE4: The (+) symbols identify a compound of the present disclosure with the noted target activity; +*: The (*) symbols indicate preferential activity, where the greater number identifies the most preferred compounds; +**: The (*) symbols indicate preferential activity, where the greater number identifies the most preferred compounds; +***: The (*) symbols indicate preferential activity, where the greater number identifies the most preferred compounds
# Conditions: compound list; + = noted target activity
# Protocol: The assay is based on the fluorescence polarization measuring AMP/GMP production as a result of the enzyme activity by displacement of Tracer binding to the AMP/GMP antibody. • Reaction Buffer: 10 mM Tris-HCl, pH 7.5, 5 mM MgCl2, 0.01% Brij 35, 1 mM DTT and 1% DMSO. • Enzyme: Recombinant human PDE4B (Gene Accession #NM_002600; aa 305-end) was expressed by baculovirus in Sf9 insect cells using an N-terminal GST tag. Mw=78 kDa. • Substrate: 1 μM cAMP • Detection: Transcreener® AMP2/GMP2 Antibody AMP2/GMP2 AlexaFluor 633 Tracer Reaction Procedure: • 1. Prepared indicated enzyme and substrate in freshly prepared Reaction Buffer • 2. Delivered enzyme solution into the reaction well • 3. Delivered compounds in 100% DMSO into the enzyme solution by Acoustic technology (Echo550; nanoliter range), incubated for 10 min at room temperature • 4. Delivered substrate solution into the reaction well to initiate the reaction • 5. Incubated for 1 h at room temperature • 6. Added detection mixture (Tracer and antibody in the stop buffer) to stop the reaction and incubated for 90 min with gentle mixing. The fluorescence polarization was measured at Ex/Em 620/688.
# Data Analysis: The FP signals were converted into nM product based on an AMP/GMP standard curve and calculated % Enzyme activity relative to DMSO control by Excel. The curve fit was performed using GraphPad prism.
# T1 sequence (Q07343 305-736 limits assumed): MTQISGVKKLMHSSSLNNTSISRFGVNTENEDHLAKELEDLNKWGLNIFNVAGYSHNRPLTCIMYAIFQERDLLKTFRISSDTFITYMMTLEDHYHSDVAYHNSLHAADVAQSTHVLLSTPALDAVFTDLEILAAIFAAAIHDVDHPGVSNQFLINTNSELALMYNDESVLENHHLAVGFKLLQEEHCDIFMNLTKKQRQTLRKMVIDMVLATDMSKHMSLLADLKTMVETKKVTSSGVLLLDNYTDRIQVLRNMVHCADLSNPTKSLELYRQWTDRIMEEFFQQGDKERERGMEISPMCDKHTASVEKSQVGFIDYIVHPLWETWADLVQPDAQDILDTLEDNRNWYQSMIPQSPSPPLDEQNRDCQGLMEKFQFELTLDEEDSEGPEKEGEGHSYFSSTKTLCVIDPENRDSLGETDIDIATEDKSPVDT
row,Structure (SMILES),Activity Note: PDE4
1,"CCC(CC)Nc1nc(Nc2ccc3c(c2)COB3O)ncc1C(F)(F)F [5-((4-(pentan-3-ylamino)-5-(trifluoromethyl)pyrimidin-2-yl)amino)benzo[c][1,2]oxaborol-1(3H)-ol]",+
2,"Cc1cnc(Nc2ccc3c(c2)COB3O)nc1Nc1ccccc1Cl [5-((4-((2-chlorophenyl)amino)-5-methylpyrimidin-2-yl)amino)benzo[c][1,2]oxaborol-1(3H)-ol]",+
3,"CCOC(=O)c1cccc(Nc2nc(Nc3ccc4c(c3)COB4O)ncc2C)c1 [ethyl 3-((2-((1-hydroxy-1,3-dihydrobenzo[c][1,2]oxaborol-5-yl)amino)-5-methylpyrimidin-4-yl)amino)benzoate]",+
4,"CCCNc1nc(Nc2ccc3c(c2)COB3O)ncc1C=O [2-((1-hydroxy-1,3-dihydrobenzo[c][1,2]oxaborol-5-yl)amino)-4-(propylamino)pyrimidine-5-carbaldehyde]",+
5,"OB1OCc2cc(Nc3ncc(C(F)(F)F)c(NCc4ccccc4)n3)ccc21 [5-((4-(benzylamino)-5-(trifluoromethyl)pyrimidin-2-yl)amino)benzo[c][1,2]oxaborol-1(3H)-ol]",+
